In EP4745132A1 (Technoderma Medicines Inc., priority 2023, dated 2025):

Experiments:
NUAK1 = biological target: T1, NUAK1 (Homo sapiens, UniProt O60285); assay: Enzyme activity inhibition test, kinase activity assay based on P81 filter paper binding hot-spot technique; type: biochemical; details: final concentration of NUAK1 10 nM; 20 µM CHKtide peptide substrate; 33P-labeled ATP; 2 hours at room temperature; read-out: IC50 (nM) of Test Compounds against NUAK1
T1 sequence (O60285 1-661): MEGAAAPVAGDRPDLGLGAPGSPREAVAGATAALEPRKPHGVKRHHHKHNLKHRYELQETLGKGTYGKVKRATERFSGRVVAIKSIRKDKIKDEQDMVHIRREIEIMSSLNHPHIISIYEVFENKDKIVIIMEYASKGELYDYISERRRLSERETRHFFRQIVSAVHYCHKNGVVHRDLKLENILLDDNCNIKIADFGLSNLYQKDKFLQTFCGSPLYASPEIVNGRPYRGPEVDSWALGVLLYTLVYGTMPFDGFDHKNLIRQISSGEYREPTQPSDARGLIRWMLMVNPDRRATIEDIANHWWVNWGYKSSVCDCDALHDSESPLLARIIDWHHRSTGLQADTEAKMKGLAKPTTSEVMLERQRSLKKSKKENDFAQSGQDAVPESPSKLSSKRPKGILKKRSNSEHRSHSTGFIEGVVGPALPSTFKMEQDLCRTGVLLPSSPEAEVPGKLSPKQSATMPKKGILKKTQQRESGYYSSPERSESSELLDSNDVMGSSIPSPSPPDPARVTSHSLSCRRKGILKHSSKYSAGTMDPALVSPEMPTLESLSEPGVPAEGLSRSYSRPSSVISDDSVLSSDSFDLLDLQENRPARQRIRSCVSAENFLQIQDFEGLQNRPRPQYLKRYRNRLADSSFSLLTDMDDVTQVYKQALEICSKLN
Method: (§1) Test Example: Enzyme Activity Inhibition Test of NUAK1/NUAK2 Kinase Inhibitors
(§2) The inhibitory activity of the pyrimidinamine small molecules involved in the present application against NUAK1 and NUAK2 kinases was determined using a kinase activity assay based on the P81 filter paper binding hot-spot technique (Nat Biotechnol. 2011, 29:1039). A brief description is as follows:
(§3) The assay buffer system contained 20 mM Hepes (pH 7.5), 10 mM MgCl2, 1 mM EGTA, 0.01% Brij35 (L23 polyoxyethylene lauryl ether), 0.02 mg/mL BSA (bovine serum albumin), 0.1 mM Na3VO4, 2 mM DTT, and 1% DMSO.
(§4) • 1. A 20 µM substrate solution was prepared with freshly prepared test buffer and CHKtide peptide fragments (Sanchez Y. Science. 1997, 277: 1497-1501) were used as a substrate. • 2. Kinases were added and mixed gently (a final concentration of NUAK1 was 10 nM; and a final concentration of NUAK2 was 50 nM). • 3. Test compounds dissolved in 100% DMSO were each added to the above kinase reaction mixture solution via Acoustic Droplet Ejection (Echo550; nanoliter) and the mixture was incubated for 5 minutes at room temperature. • 4. ^33P-labeled ATP (a ratio of unlabeled ATP to labeled ATP was 25:1 or 2.5:1) was added. • 5. The mixture was incubated for 2 hours at room temperature. • 6. Kinase activity was tested using the P81 filter paper combined with hotspot technology.
(§5) The IC50 values of the test compounds against NUAK1/NUAK2 were calculated according to the above test. For specific results, see Table 1.
(§6) The IC50 values were calculated by using a formula derived from sigmoidal dose-response curve (variable slope): Y = Bottom + (Top−Bottom)/(1+10^(∧)((LogEC50−X)*Slope, [formula] where X is the logarithm of compound concentration, Y is the response (inhibition rate of kinase activity), and Y rises from bottom to top along the sigmoidal curve as the concentration increases. Table 1: IC50 (nM) of Test Compounds of the Present Application against NUAK1/NUAK2

NUAK2 = biological target: T2, NUAK2 (Homo sapiens, UniProt Q9H093); assay: as above; type: biochemical; details: final concentration of NUAK2 50 nM; 20 µM CHKtide peptide substrate; 33P-labeled ATP; 2 hours at room temperature; read-out: IC50 (nM) of Test Compounds against NUAK2
T2 sequence (Q9H093 1-628): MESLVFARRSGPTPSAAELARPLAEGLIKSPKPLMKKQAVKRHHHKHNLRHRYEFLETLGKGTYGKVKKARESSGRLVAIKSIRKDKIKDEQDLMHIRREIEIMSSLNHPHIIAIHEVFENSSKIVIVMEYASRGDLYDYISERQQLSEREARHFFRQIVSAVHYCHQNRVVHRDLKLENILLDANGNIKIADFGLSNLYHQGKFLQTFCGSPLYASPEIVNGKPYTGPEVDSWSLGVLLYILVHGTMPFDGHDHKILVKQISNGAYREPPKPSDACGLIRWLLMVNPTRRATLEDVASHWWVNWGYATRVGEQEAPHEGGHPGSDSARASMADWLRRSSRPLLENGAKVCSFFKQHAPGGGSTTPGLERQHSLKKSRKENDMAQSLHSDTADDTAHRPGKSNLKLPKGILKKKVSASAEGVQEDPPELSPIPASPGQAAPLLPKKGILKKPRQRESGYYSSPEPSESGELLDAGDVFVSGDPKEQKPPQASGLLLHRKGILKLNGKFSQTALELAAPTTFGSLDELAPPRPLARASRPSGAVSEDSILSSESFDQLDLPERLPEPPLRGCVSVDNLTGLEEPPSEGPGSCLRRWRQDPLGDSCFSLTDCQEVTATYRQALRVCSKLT
Method: as §1, §2, §3, §4, §5, §6

Compound: COc1cc(N2CCN(C)CC2)ccc1Nc1ncc(Cl)c(N2CCC(C)(NS(=O)(=O)C3CC3)CC2)n1 [TDM-181175, N-(1-(5-chloro-2-((2-methoxy-4-(4-methylpiperazin-1-yl)phenyl)amino)pyrimidin-4-yl)4-methylpiperidin-4-yl)cyclopropanesulfonamide]
- IC50 (NUAK1): 20 nM
- IC50 (NUAK2): 13 nM

Compound: CC1(NC(=O)[C@@H]2CC2(F)F)CCN(Cc2nc(Nc3cnn(C4CCNCC4)c3)ncc2Cl)CC1 [TDM-181186, (S)-N-(1-((5-chloro-2-((1-(piperidin-4-yl)-1H-pyrazol-4-yl)amino)pyrimidin-4-yl)methyl)-4-methylpiperidin-4-yl)-2,2-difluorocyclopropane-1-carboxamide]
- IC50 (NUAK1): 959 nM

Compound: CN1CCN(c2ccc(Nc3ncc(Cl)c(N4CCC(C)(NS(=O)(=O)C5CC5)CC4)n3)cc2)CC1 [TDM-181173, N-(1-(5-chloro-2-((4-(4-methylpiperazin-1-yl)phenyl)amino)pyrimidin-4-yl)-4-methylpiperidin-4-yl)cyclopropanesulfonamide]
- IC50 (NUAK1): 1 nM
- IC50 (NUAK2): 3 nM

Compound: CN1CCN(c2ccc(Nc3nccc(N4CCC(C)(NS(=O)(=O)C5CC5)CC4)n3)cc2)CC1 [TDM-181165, N-(4-methyl-1-(2-((4-(4-methylpiperazin-1-yl)phenyl)amino)pyrimidin-4-yl)piperidin-4-yl)cyclopropanesulfonamide]
- IC50 (NUAK1): 39 nM
- IC50 (NUAK2): 72 nM

Compound: CN1CCN(c2ccc(Nc3nccc(N4CCC(C)(NC(=O)[C@@H]5CC5(F)F)CC4)n3)cc2)CC1 [TDM-181164, (S)-2,2-Difluoro-N-(4-methyl-1-(2-((4-(4-methylpiperazin-1-yl)phenyl)amino)pyrimidin-4-yl)piperidin-4-yl)cyclopropane-1-carboxamide]
- IC50 (NUAK1): 6 nM
- IC50 (NUAK2): 15 nM

Compound: CN1CCN(c2ccc(Nc3ncc(Cl)c(N4CCC(C)(NC(=O)[C@@H]5CC5(F)F)CC4)n3)cc2)CC1 [TDM-181174, (S)-N-(1-(5-chloro-2-((4-(4-methylpiperazin-1-yl)phenyl)amino)pyrimidin-4-yl)-4-methylpiperidin-4-yl)-2,2-difluorocyclopropanecarboxamide]
- IC50 (NUAK1): 0.46 nM
- IC50 (NUAK2): 1.44 nM

Compound: CC1(NC(=O)[C@@H]2CC2(F)F)CCN(c2nc(Nc3cnn(C4CCNCC4)c3)ncc2Cl)CC1
- IC50 (NUAK1): 1.24 nM
- IC50 (NUAK2): 2.76 nM

Compound: CC1(NC(=O)[C@@H]2CC2(F)F)CCN(c2ccnc(Nc3cnn(C4CCNCC4)c3)n2)CC1 [TDM-181163]
- IC50 (NUAK1): 30 nM
- IC50 (NUAK2): 15 nM

Compound: CC1(NS(=O)(=O)C2CC2)CCN(c2ccnc(Nc3cnn(C4CCNCC4)c3)n2)CC1 [TDM-181137]
- IC50 (NUAK1): 71 nM
- IC50 (NUAK2): 29 nM

Compound: CN1CCN(c2ccc(Nc3ncc(Cl)c(CN4CCC(C)(NS(=O)(=O)C5CC5)CC4)n3)cc2)CC1 [TDM-181183, N-(1-((5-chloro-2-((4-(4-methylpiperazin-1-yl)phenyl)amino)pyrimidin-4-yl)methyl)-4-methylpiperidin-4-yl)cyclopropanesulfonamide]
- IC50 (NUAK1): 69 nM

Compound: CN1CCN(c2ccc(Nc3ncc(Cl)c(CN4CCC(C)(NC(=O)[C@@H]5CC5(F)F)CC4)n3)cc2)CC1 [TDM-181182, (S)-N-(1-((5-chloro-2-((4-(4-methylpiperazin-1-yl)phenyl)amino)pyrimidin-4-yl)methyl)-4-methylpiperidin-4-yl)-2,2-difluorocyclopropane-1-carboxamide]
- IC50 (NUAK1): 679 nM
